The values below are quoted from earlier work in patent US20150231092A1, “NOVEL EFFERVESCENT SACHET FORMULATIONS OF DAPOXETINE AND A PDE5 INHIBITOR” (Sanovell IIac Sanayi Ve Ticaret Anonim Sirketi, priority 2012, published 2015).

For data set [1] the following is noted: following oral administration.
For data set [2] the following is noted: following oral administration. This is another data set of the same source.

On to `CN(C)[C@@H](CCOc1cccc2ccccc12)c1ccccc1` [dapoxetine], for which the “binding to plasma proteins” value in data set [1] is on record as “almost completely binding to plasma proteins”.

Consider `CN1CC(=O)N2[C@H](c3ccc4c(c3)OCO4)c3[nH]c4ccccc4c3C[C@@H]2C1=O` [tadalafil, (6R-trans)-6-(1,3-benzodioxol-5-yl)-2,3,6,7,12,12a-hexahydro-2-methyl-pyrazino[1′,2′:1,6]pyrido[3,4-b]indole-1,4-dione], for which the solubility in water result is “poorly soluble in water”. Also, in data set [2], the onset of action was 15 min and the “onset of action takes (second sentence; apparently action time)” value was “up to 36 hours”.
